Test results published in ChEMBL document CHEMBL1152012, “Synthesis of (+)-biotin derivatives as HIV-1 protease inhibitors” (Bioorg Med Chem Lett, 1996).

Experiments:
[1] = test system: MT2; assay: Concentration resulting in 90% inhibition of viral RNA production in HIV-1 infected MT-2 cells; format: functional; details: Homo sapiens
[2] = biological target: Human immunodeficiency virus type 1 protease (Human immunodeficiency virus 1, UniProt Q72874); assay: Inhibitory activity against HIV protease enzyme.

Row | IC90 [1] [µM] | Ki [2] [µM] | SMILES
1 | 45 | 0.68 | O=C(CCCC[C@@H]1SCC2C1N(Cc1cccc(Br)c1)C(=O)N2Cc1cccc(Br)c1)OCc1cccc(Br)c1 (some centres not stated)
2 | > 80 | 4.1 | COC(=O)CCCC[C@H]1C2C(CS1(=O)=O)N(Cc1cccc(Br)c1)C(=O)N2Cc1cccc(Br)c1 (some centres not stated)
3 | 80 | 6.9 | O=C1N(Cc2cccc(Br)c2)C2CS(=O)(=O)[C@@H](CCCCCO)C2N1Cc1cccc(Br)c1 (some centres not stated)
4 | 7 | 0.5 | O=C1N(Cc2cccc(Br)c2)C2CS[C@@H](CCCCCO)C2N1Cc1cccc(Br)c1 (some centres not stated)
5 | 44 | 0.58 | COC(=O)CCCC[C@@H]1SCC2C1N(Cc1cccc(Br)c1)C(=O)N2Cc1cccc(Br)c1 (some centres not stated)
6 | > 98 | 1.9 | CC(O)c1cccc(CN2C(=O)N(Cc3cccc(C(C)O)c3)C3C2CS[C@H]3CCCCCO)c1 (some centres not stated)
7 | 67 | 2.7 | C/C(=N\O)c1cccc(COC(=O)CCCC[C@@H]2SCC3C2N(Cc2cccc(/C(C)=N/O)c2)C(=O)N3Cc2cccc(/C(C)=N/O)c2)c1 (some centres not stated)
8 | 26 | 3.7 | CC(=O)c1cccc(CN2C(=O)N(Cc3cccc(C(C)=O)c3)C3C2CS[C@H]3CCCCCO)c1 (some centres not stated)
9 | 12.5 | 3.4 | CC(=O)c1cccc(COC(=O)CCCC[C@@H]2SCC3C2N(Cc2cccc(C(C)=O)c2)C(=O)N3Cc2cccc(C(C)=O)c2)c1 (some centres not stated)
10 | 46 | 10.3 | O=C1N(Cc2ccccc2)C2CS[C@@H](CCCCCO)C2N1Cc1ccccc1 (some centres not stated)
11 | 34 | 2.2 | O=C(O)CCCC[C@@H]1SCC2C1N(Cc1cccc(Br)c1)C(=O)N2Cc1cccc(Br)c1 (some centres not stated)
